From the NIST ThermoML archive (doi:10.1021/acs.jced.8b01135)
“And” between values parts separate entries of the source, which are not always exact repeats. Equal values may be shown once. Numbers after ± are expanded uncertainties.

Experiments:
[1] = xn = mol fraction of the nth substance listed; conditions: 102 kPa, Liquid, x2 = 0; for speed of sound: Frequency=3 MHz, Single path-length method; for mass density: Vibrating tube method; for viscosity: Concentric cylinders viscometry
[2] = 102 kPa, Liquid; for speed of sound: Frequency=3 MHz, Single path-length method; for mass density: Vibrating tube method; for viscosity: Concentric cylinders viscometry

Structure (SMILES)	speed of sound ([1]; 288.15 K) [m/s]	speed of sound ([2]; 288.15 K) [m/s]	mass density ([2]; 288.15 K) [kg/m3]	viscosity ([2]; 293.15 K)	speed of sound ([2]; 293.15 K) [m/s]	mass density ([2]; 293.15 K) [kg/m3]	speed of sound ([2]; 298.15 K) [m/s]	mass density ([2]; 298.15 K) [kg/m3]	viscosity ([2]; 303.15 K) [mPa·s]	speed of sound ([2]; 303.15 K) [m/s]	mass density ([2]; 303.15 K)	viscosity ([2]; 313.15 K) [mPa·s]	speed of sound ([2]; 313.15 K) [m/s]	mass density ([2]; 313.15 K) [kg/m3]	viscosity ([2]; 323.15 K) [mPa·s]	speed of sound ([2]; 323.15 K) [m/s]	mass density ([2]; 323.15 K) [kg/m3]	viscosity ([2]; 333.15 K)	speed of sound ([2]; 333.15 K) [m/s]	mass density ([2]; 333.15 K) [kg/m3]	further results
CCCCCCCCCCCC [dodecane] + CCCCCCCCC1CCCCC1	1317.2 ± 0.8																				mass density ([1]; 288.15 K): 752.35 ± 0.71 kg/m3; viscosity ([1]; 293.15 K): 1.49 ± 0.02 mPa·s; speed of sound ([1]; 293.15 K): 1297.7 ± 0.8 m/s; mass density ([1]; 293.15 K): 748.72 ± 0.71 kg/m3; speed of sound ([1]; 298.15 K): 1278.2 ± 0.8 m/s; mass density ([1]; 298.15 K): 745.09 ± 0.71 kg/m3; viscosity ([1]; 303.15 K): 1.27 ± 0.02 mPa·s; speed of sound ([1]; 303.15 K): 1259 ± 0.8 m/s; mass density ([1]; 303.15 K): 741.46 ± 0.71 kg/m3; viscosity ([1]; 313.15 K): 1.08 ± 0.02 mPa·s; speed of sound ([1]; 313.15 K): 1221.1 ± 0.8 m/s; mass density ([1]; 313.15 K): 734.19 ± 0.71 kg/m3; viscosity ([1]; 323.15 K): 0.934 ± 0.021 mPa·s; speed of sound ([1]; 323.15 K): 1184 ± 0.8 m/s; mass density ([1]; 323.15 K): 726.88 ± 0.71 kg/m3; viscosity ([1]; 333.15 K): 0.813 ± 0.021 mPa·s; speed of sound ([1]; 333.15 K): 1147.8 ± 0.8 m/s; mass density ([1]; 333.15 K): 719.53 ± 0.71 kg/m3
CCCCCCCCCCCC [dodecane] + CCCCCCCCCCC1CCCCC1	1317.2 ± 0.8																				mass density ([1]; 288.15 K): 752.35 ± 0.71 kg/m3; viscosity ([1]; 293.15 K): 1.49 ± 0.02 mPa·s; speed of sound ([1]; 293.15 K): 1297.7 ± 0.8 m/s; mass density ([1]; 293.15 K): 748.72 ± 0.71 kg/m3; speed of sound ([1]; 298.15 K): 1278.2 ± 0.8 m/s; mass density ([1]; 298.15 K): 745.09 ± 0.71 kg/m3; viscosity ([1]; 303.15 K): 1.27 ± 0.02 mPa·s; speed of sound ([1]; 303.15 K): 1259 ± 0.8 m/s; mass density ([1]; 303.15 K): 741.46 ± 0.71 kg/m3; viscosity ([1]; 313.15 K): 1.08 ± 0.02 mPa·s; speed of sound ([1]; 313.15 K): 1221.1 ± 0.8 m/s; mass density ([1]; 313.15 K): 734.19 ± 0.71 kg/m3; viscosity ([1]; 323.15 K): 0.934 ± 0.021 mPa·s; speed of sound ([1]; 323.15 K): 1184 ± 0.8 m/s; mass density ([1]; 323.15 K): 726.88 ± 0.71 kg/m3; viscosity ([1]; 333.15 K): 0.813 ± 0.021 mPa·s; speed of sound ([1]; 333.15 K): 1147.8 ± 0.8 m/s; mass density ([1]; 333.15 K): 719.53 ± 0.71 kg/m3
CCCCCCCCCCCC [dodecane] + CCCCCCCCCCCCC1CCCCC1	1317.2 ± 0.8																				mass density ([1]; 288.15 K): 752.35 ± 0.71 kg/m3; viscosity ([1]; 293.15 K): 1.49 ± 0.02 mPa·s; speed of sound ([1]; 293.15 K): 1297.7 ± 0.8 m/s; mass density ([1]; 293.15 K): 748.72 ± 0.71 kg/m3; speed of sound ([1]; 298.15 K): 1278.2 ± 0.8 m/s; mass density ([1]; 298.15 K): 745.09 ± 0.71 kg/m3; viscosity ([1]; 303.15 K): 1.27 ± 0.02 mPa·s; speed of sound ([1]; 303.15 K): 1259 ± 0.8 m/s; mass density ([1]; 303.15 K): 741.46 ± 0.71 kg/m3; viscosity ([1]; 313.15 K): 1.08 ± 0.02 mPa·s; speed of sound ([1]; 313.15 K): 1221.1 ± 0.8 m/s; mass density ([1]; 313.15 K): 734.19 ± 0.71 kg/m3; viscosity ([1]; 323.15 K): 0.934 ± 0.021 mPa·s; speed of sound ([1]; 323.15 K): 1184 ± 0.8 m/s; mass density ([1]; 323.15 K): 726.88 ± 0.71 kg/m3; viscosity ([1]; 333.15 K): 0.813 ± 0.021 mPa·s; speed of sound ([1]; 333.15 K): 1147.8 ± 0.8 m/s; mass density ([1]; 333.15 K): 719.53 ± 0.71 kg/m3
CCCCCCCCCCCCC1CCCCC1 [dodecylcyclohexane]		1441.5 ± 0.9	825.71 ± 0.71	7.77 ± 0.05 mPa·s and 7.76 ± 0.05 mPa·s	1422.9 ± 0.9	822.36 ± 0.71	1404.8 ± 0.9	819.02 ± 0.71	5.81 ± 0.04	1386.3 ± 0.9	815.68 ± 0.71 kg/m3	4.48 ± 0.04	1350.5 ± 0.9	809.03 ± 0.71	3.55 ± 0.04	1315.4 ± 0.9	802.38 ± 0.71	2.87 ± 0.03 mPa·s and 2.88 ± 0.03 mPa·s	1281.4 ± 0.9	795.75 ± 0.71	
CCCCCCCC1CCCCC1 [heptylcyclohexane]		1393.6 ± 0.9	814.51 ± 0.71	2.8 ± 0.03 mPa·s	1374.2 ± 0.9	811 ± 0.71	1355.1 ± 0.9	807.49 ± 0.71	2.25 ± 0.03	1336.1 ± 0.9	803.99 ± 0.71 kg/m3 and 803.98 ± 0.71 kg/m3	1.85 ± 0.03	1298.8 ± 0.9	796.95 ± 0.71	1.55 ± 0.03	1262.2 ± 0.9	789.91 ± 0.71	1.31 ± 0.03 mPa·s	1226.7 ± 0.9	782.85 ± 0.71	
CCCCCCC1CCCCC1 [hexylcyclohexane]		1380.4 ± 1.4	811.34 ± 0.75	2.19 ± 0.03 mPa·s	1360.9 ± 1.4	807.76 ± 0.75	1341.4 ± 1.4	804.19 ± 0.75	1.79 ± 0.03	1322.1 ± 1.4	800.61 ± 0.75 kg/m3	1.52 ± 0.03	1284.2 ± 1.4	793.43 ± 0.75	1.3 ± 0.03	1247.1 ± 1.4	786.25 ± 0.75	1.12 ± 0.03 mPa·s	1211 ± 1.4	779.05 ± 0.75	
CCCCCCCCC1CCCCC1 [octylcyclohexane]		1405.5 ± 1	817.58 ± 0.72	3.52 ± 0.04 mPa·s	1386.4 ± 1	814.13 ± 0.72	1367.4 ± 1	810.67 ± 0.72	2.79 ± 0.03	1348.6 ± 1	807.21 ± 0.72 kg/m3 and 807.2 ± 0.72 kg/m3	2.26 ± 0.03	1311.6 ± 1	800.28 ± 0.72	1.87 ± 0.03	1275.5 ± 1	793.35 ± 0.72	1.57 ± 0.03 mPa·s	1240.3 ± 1	786.41 ± 0.72	
CCCCCC1CCCCC1 [pentylcyclohexane]		1365.8 ± 1.1	807.78 ± 0.72	1.69 ± 0.03 mPa·s	1346 ± 1.1	804.13 ± 0.72	1326.4 ± 1.1	800.48 ± 0.72	1.43 ± 0.03	1306.7 ± 1.1	796.82 ± 0.72 kg/m3	1.21 ± 0.03	1268.2 ± 1.1	789.49 ± 0.72	1.05 ± 0.03	1230.5 ± 1.1	782.14 ± 0.72	0.914 ± 0.031 mPa·s	1193.5 ± 1.1	774.75 ± 0.72	
